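All cell lines were grown in 96-well plates and treated with compound for 48 hours. GI50 is the concentration that inhibits growth by half.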 The source made the active and inactive calls. Cut-off read from the data, not from the text of the source: active = GI50 up to about 1.1 µM and inactive = higher.

Test systems include UACC-62; Malme-3M; 786-0; HOP-62; RXF 393; HOP-92; UACC-257; OVCAR-8; EKVX; SNB-75; HCT-116; SK-MEL-5; HCT-15; LOX IMVI; SK-MEL-28; A549; NCI/ADR-RES; TK-10; NCI-H460; OVCAR-5.
Assay in all cases: growth of human tumour cells (NCI), 48 h

`CN(C)CCCCN1CCc2c(n(C)c3ccccc23)C1=O`: the GI50 in the assay on UACC-62 was 26 µM (inactive); in the assay on Malme-3M, 21.7 µM (inactive); in the assay with 786-0 it was 61.1 µM (inactive); in the assay with HOP-62 it was 51.3 µM (inactive); in the assay with RXF 393 it was 31.5 µM (inactive); in the assay on HOP-92, 32 µM (inactive). Besides, the GI50 is 17.2 µM (inactive) in the assay with UACC-257; > 83.4 µM (inactive) in the assay with OVCAR-8; 51.5 µM (inactive) in the assay with EKVX; 34.1 µM (inactive) with SNB-75; 40.3 µM (inactive) in the assay with HCT-116; 21.3 µM (inactive) in the assay on SK-MEL-5. For the same compound, the GI50 was 39.4 µM in the assay on HCT-15; 25.9 µM (inactive) in the assay with LOX IMVI; 20.3 µM (inactive) with SK-MEL-28; 64.7 µM (inactive) with A549; 39.4 µM (inactive) in the assay with NCI/ADR-RES.

In the case of `COc1cccc2c1-c1c(OC)cccc1SS2`, the GI50 with UACC-62 is 20.1 µM (inactive); with Malme-3M it was 18.1 µM (inactive); in the assay with 786-0, 18.2 µM (inactive); in the assay on TK-10 it was 21.9 µM (inactive); in the assay with NCI-H460, 18.2 µM (inactive); with HOP-62 it was 47.2 µM (inactive). Further, the GI50 in the assay with RXF 393 was 17.5 µM (inactive); with HOP-92 it was 19.9 µM (inactive); in the assay with UACC-257, 11.6 µM (inactive); in the assay with OVCAR-8 it was 25.9 µM (inactive); in the assay with EKVX, 13.1 µM (inactive); with HCT-116 it was 18.2 µM (inactive). The GI50 with SK-MEL-5 was 13.6 µM (inactive); in the assay with HCT-15, 13.4 µM; in the assay on OVCAR-5, 17.8 µM (inactive); with LOX IMVI, 10.7 µM (inactive); in the assay on SK-MEL-28, 16.8 µM (inactive); with A549, 14.4 µM (inactive). The GI50 with NCI/ADR-RES was 36.6 µM (inactive).

As for `C=CCOc1ccc(C(=N/NC(=O)c2ccccc2)/N=N/c2ccc(C)cc2)cc1OC`, the GI50 is 14.3 µM (inactive) in the assay with UACC-62; 21.1 µM (inactive) in the assay on Malme-3M; 33.9 µM (inactive) in the assay with 786-0; 30 µM (inactive) in the assay with TK-10; 18.4 µM (inactive) in the assay with NCI-H460; 37.8 µM (inactive) in the assay on HOP-62. For the same compound, the GI50 in the assay on HOP-92 is 8.79 µM (inactive); in the assay with UACC-257, 19.6 µM (inactive); in the assay with OVCAR-8 it was 25.4 µM (inactive); in the assay on EKVX it was 30.9 µM (inactive); with SNB-75, 20.2 µM (inactive); in the assay on HCT-116, 19 µM (inactive). In addition, the GI50 with SK-MEL-5 is 17.9 µM (inactive); in the assay on HCT-15, 35.1 µM; with OVCAR-5 it was 42.6 µM (inactive); in the assay on LOX IMVI it was 14.7 µM (inactive); in the assay with SK-MEL-28, 20 µM (inactive); in the assay with A549, 26.2 µM (inactive). The GI50 in the assay with NCI/ADR-RES is 35.7 µM (inactive).

Take `O=C(/C=C\c1ccccc1-c1ccccc1)c1ccccc1`: the GI50 was > 100 µM (inactive) with UACC-62; > 100 µM (inactive) in the assay on 786-0; > 100 µM (inactive) in the assay on TK-10; > 100 µM (inactive) in the assay on NCI-H460; > 100 µM (inactive) in the assay on HOP-62; 45.5 µM (inactive) with RXF 393. The GI50 in the assay on HOP-92 is > 100 µM (inactive); in the assay with UACC-257, > 100 µM (inactive); in the assay on OVCAR-8, > 100 µM (inactive); with EKVX, > 100 µM (inactive); in the assay on SNB-75, 61.8 µM (inactive); in the assay with HCT-116, 66.5 µM (inactive). The GI50 is > 100 µM (inactive) in the assay on SK-MEL-5; more than 100 µM with HCT-15; > 100 µM (inactive) with OVCAR-5; 3.93 µM (inactive) in the assay with A549; > 100 µM (inactive) with NCI/ADR-RES.

Regarding `O=C(Nc1ccc(Cl)cc1)c1cc(S(=O)(=O)Nc2n[nH]c(=O)[nH]2)c(SSc2cc(Cl)c(C(=O)Nc3ccc(Cl)cc3)cc2S(=O)(=O)Nc2n[nH]c(=O)[nH]2)cc1Cl`, the GI50 in the assay on UACC-62, in the assay on Malme-3M, with 786-0, in the assay with TK-10, in the assay with NCI-H460 and in the assay with HOP-62 was > 100 µM (inactive) each time. Moreover, the GI50 is > 100 µM (inactive) in the assay with HOP-92; > 100 µM (inactive) in the assay with UACC-257; > 100 µM (inactive) in the assay on OVCAR-8; > 100 µM (inactive) in the assay with EKVX; 88.1 µM (inactive) in the assay on SNB-75; > 100 µM (inactive) in the assay with HCT-116. Further, the GI50 was > 100 µM (inactive) in the assay on SK-MEL-5; more than 100 µM in the assay on HCT-15; > 100 µM (inactive) in the assay with OVCAR-5; > 100 µM (inactive) in the assay with LOX IMVI; > 100 µM (inactive) in the assay on SK-MEL-28; > 100 µM (inactive) in the assay on A549. Further, the GI50 in the assay with NCI/ADR-RES is > 100 µM (inactive).

For `COc1cc2c(cc1O)C1Cc3ccc(OC)c(O)c3C(C2)N1C` (stereo not drawn), the GI50 with UACC-62 is > 100 µM (inactive); in the assay on Malme-3M, > 100 µM (inactive); in the assay with 786-0, > 100 µM (inactive); in the assay on TK-10, > 100 µM (inactive); in the assay with NCI-H460, 94 µM (inactive); in the assay on HOP-62 it was 92.9 µM (inactive). Besides, the GI50 in the assay on RXF 393 is > 100 µM (inactive); with HOP-92, 17.5 µM (inactive); in the assay on UACC-257, > 100 µM (inactive); in the assay on OVCAR-8, > 100 µM (inactive); with EKVX, > 100 µM (inactive); with HCT-116 it was > 100 µM (inactive). The GI50 is > 100 µM (inactive) in the assay on SK-MEL-5; more than 100 µM in the assay with HCT-15; > 100 µM (inactive) with OVCAR-5; > 100 µM (inactive) with LOX IMVI; > 100 µM (inactive) in the assay with SK-MEL-28; > 100 µM (inactive) in the assay on A549. Moreover, in the assay with NCI/ADR-RES, the GI50 is > 100 µM (inactive).

On to `CC(=O)O[C@H]1[C@@H](OC2CCCC2(c2ccccc2)c2ccccc2)O[N+]([O-])=C[C@@H]1c1ccccc1` (stereo partly drawn), for which the GI50 in the assay with UACC-62 was 4.66 µM (inactive); with 786-0 it was 1.86 µM (inactive); with TK-10, 9.71 µM (inactive); in the assay with NCI-H460, 17.9 µM (inactive); in the assay on HOP-62, 16.6 µM (inactive); with RXF 393, 2.82 µM (inactive). The GI50 is 5.92 µM (inactive) with HOP-92; 9.25 µM (inactive) with UACC-257; 2.47 µM (inactive) with OVCAR-8; 13.4 µM (inactive) in the assay with EKVX; 5.55 µM (inactive) in the assay with SNB-75; 3.24 µM (inactive) in the assay with HCT-116. The GI50 with SK-MEL-5 is 8.02 µM (inactive); with HCT-15 it was 4.75 µM; with OVCAR-5 it was 17.6 µM (inactive); in the assay on LOX IMVI, 2.1 µM (inactive); in the assay on SK-MEL-28, 2.55 µM (inactive); in the assay with A549, 9.33 µM (inactive). Besides, the GI50 with NCI/ADR-RES is 5.42 µM (inactive).

Consider `O=C1/C(=C/c2ccco2)NC(=S)N1CN1CCCCC1`, for which the GI50 was 57.9 µM (inactive) with UACC-62; 85.5 µM (inactive) in the assay on Malme-3M; 70.1 µM (inactive) in the assay with 786-0; > 100 µM (inactive) in the assay with TK-10; > 100 µM (inactive) in the assay on HOP-62; > 100 µM (inactive) in the assay with HOP-92. In addition, the GI50 in the assay on OVCAR-8 was 43.7 µM (inactive); in the assay on EKVX it was 98.4 µM (inactive); in the assay with SNB-75 it was 58.5 µM (inactive); in the assay with HCT-116, 57.4 µM (inactive); in the assay with SK-MEL-5, 57.8 µM (inactive); in the assay on HCT-15 it was 28.6 µM. The GI50 is > 100 µM (inactive) in the assay on OVCAR-5; 33.7 µM (inactive) in the assay with LOX IMVI; > 100 µM (inactive) in the assay on SK-MEL-28; > 100 µM (inactive) in the assay with A549; 10.5 µM (inactive) with NCI/ADR-RES.

Consider `COc1ccc(/C=N/N=C(\N)NO)c(OC)c1OC`, for which the GI50 in the assay with UACC-62 is 20.6 µM (inactive); with Malme-3M, 26.5 µM (inactive); in the assay with 786-0, 18.5 µM (inactive); in the assay with TK-10, 71.1 µM (inactive); in the assay with NCI-H460 it was 33 µM (inactive); with HOP-62, 32.7 µM (inactive). Further, the GI50 with RXF 393 was 30.1 µM (inactive); in the assay on HOP-92 it was 11.1 µM (inactive); in the assay on OVCAR-8, 15 µM (inactive); in the assay on EKVX, 16.6 µM (inactive); in the assay with HCT-116, 20.1 µM (inactive); in the assay with SK-MEL-5 it was 24.6 µM (inactive). Also, the GI50 in the assay with HCT-15 is 35.2 µM; with OVCAR-5, 23.4 µM (inactive); with LOX IMVI, 23.4 µM (inactive); in the assay on SK-MEL-28, > 100 µM (inactive); in the assay with A549 it was 13.3 µM (inactive); in the assay with NCI/ADR-RES, 14 µM (inactive).

Consider `CN(/N=C/c1ccccc1C(=O)O)C1=NCCCCN1`, for which the GI50 in the assay with UACC-62, in the assay on Malme-3M, in the assay with 786-0, in the assay with TK-10, in the assay with NCI-H460 and with HOP-62 was > 100 µM (inactive) throughout. Moreover, the GI50 in the assay with HOP-92, with UACC-257, in the assay with OVCAR-8, with EKVX, in the assay with SNB-75 and in the assay on HCT-116 was > 100 µM (inactive) each time. For the same compound, the GI50 is > 100 µM (inactive) in the assay with SK-MEL-5; more than 100 µM in the assay with HCT-15; > 100 µM (inactive) in the assay on OVCAR-5; > 100 µM (inactive) with LOX IMVI; > 100 µM (inactive) in the assay on A549; > 100 µM (inactive) in the assay on NCI/ADR-RES.

On to `CCC(CCCCC1CC[C@H]2CC(=O)C[C@@H]12)OC` (stereo partly drawn), for which the GI50 is > 100 µM (inactive) in the assay on 786-0; > 100 µM (inactive) in the assay on TK-10; > 100 µM (inactive) with NCI-H460; > 100 µM (inactive) in the assay on RXF 393; > 100 µM (inactive) in the assay on HOP-92; 72.3 µM (inactive) in the assay with UACC-257. For the same compound, the GI50 was > 100 µM (inactive) in the assay on OVCAR-8; > 100 µM (inactive) in the assay with SNB-75; > 100 µM (inactive) with HCT-116; 79.8 µM (inactive) with SK-MEL-5; more than 100 µM in the assay with HCT-15; > 100 µM (inactive) with OVCAR-5. The GI50 with LOX IMVI is > 100 µM (inactive); with SK-MEL-28, > 100 µM (inactive); with A549, > 100 µM (inactive); in the assay with NCI/ADR-RES it was 71.1 µM (inactive).

Values taken from ChEMBL document CHEMBL1201862, “PubChem BioAssay data set” (2004).
